In patent US6391329B1, “Insect pest control method” (Earth Chemical Co., Ltd., priority 1994, dated 2002):
Read-outs that look alike come from different tables or passages of the source.

Key:
[1] = Vapor pressure at 30° C. on the cox diagram; format: physicochemical
Protocol: Compounds which are hard to vaporize at normal temperature can be used in the present invention as a pesticidal component. Those having a vapor pressure […] than 1×10^−7 mmHg at 30° C. and a boiling point of not lower than 120° C./1 mmHg are preferred. It should be noted that the range of vapor pressure as referred to herein is the range at 30° C. on the vapor pressure vs. temperature plot in the cox diagram hereinafter described.
The results of our study have made it possible to suppose or know the vapor pressure at a target temperature by utilizing the cox diagram only if at least one found value is available. The aforesaid problem can thus be solved.
The cox diagram as used herein is the straight line or a group of the straight lines obtained by plotting log P as ordinate and t/(t+C) as abscissa on a graph.

[2] = test system: Northern house mosquito (female adult); experiment: Insecticidal test in acrylic resin cylinder, air blown through impregnated honeycomb carrier (Example 1); format: in vivo; conditions: 500 mg preparation; for number of knockdowns: 26 to 30° C.
From the text: Testing apparatus 1 shown in FIG. 1 comprising acrylic resin cylinder 4 was used. Twenty of northern house mosquitos (female adult) were put in the space partitioned with insect nets 2, and blower 3 was set at the bottom of testing apparatus 1. Preparation-retaining material 5 comprising a honeycomb carrier impregnated with a preparation was fitted in at the lower part of cylinder 4 and above blower 3. Air was blown from the bottom of cylinder 4 and passed through the preparation-retaining material 5 to release the pesticidal component from the preparation, and the insecticidal effect was examined using apparatus 1 for insect control of the present invention.
The number of knockdowns of the mosquitos was counted for every 30 seconds during 10 minutes and 30 seconds following the start of the testing. The mosquitos knocked down were transferred to a clean plastic cup (volume: about 500 ml) containing a cotton wad impregnated with a 1% aqueous sugar solution as feed, and the cup was covered and maintained under constant temperature conditions of about 25° C. […]
The preparation-retaining material used herein was prepared as follows. A honeycomb structure (70×70×15 mm) comprising a laminate of corrugated boards (single-sided) made of bleached kraft paper having a basis weight of 80 g/m^2 (height of the corrugation: about 2 mm) was uniformly impregnated with 3 ml of an acetone solution containing about 500 mg of preparation. The impregnated carrier was set in the apparatus after acetone vaporized.

[3] = test system: sensitive German cockroaches (Blatella germanica); experiment: Cockroach knockdown and mortality in 24 m^3 test room (Example 3); format: in vivo; conditions: 1.0 g pesticidal component
Protocol: (§1) The insect pest control apparatus of the present invention was put at the center of the floor of the room, and two cups each containing 20 cockroaches were placed at each of the two opposite corners of the floor. The pesticidal component shown in Table 5 below was released from the apparatus for consecutive 24 hours. As test insects, sensitive German cockroaches (Blatella germanica) and sensitive smokybrown cockroaches (Periplaneta fuliginosa) were used.
(§2) The preparation-retaining material used was prepared by impregnating a honeycomb carrier (70×70×15 mm; FIG. 3) with 1.0 g of the pesticidal component.

[4] = test system: sensitive smokybrown cockroaches (Periplaneta fuliginosa); experiment: as above; format: in vivo; conditions: 1.0 g pesticidal component
Protocol: as §1, §2

[5] = Vapor pressure measurement of pyrethroid compounds with the vapor pressure measuring apparatus
[6] = at 30° C.; cited from earlier work

C#CC(OC(=O)C1C(C=C(C)C)C1(C)C)/C(C)=C/CC (mixture of isomers) [empenthrin, 1-ethynyl-2-methyl-2-pentenyl dl-cis/trans-3-(2,2-dimethylvinyl)-2,2-dimethyl-1-cyclopropanecarboxylate]
Vapor Pressure at 30° C. [1]: 1.5 × 10^−3 mmHg | number of knockdowns ([2]; 0.5 min): 0 | number of knockdowns ([2]; 1.0 min): 0 | number of knockdowns ([2]; 1.5 min): 1 | number of knockdowns ([2]; 2.0 min): 2 | number of knockdowns ([2]; 2.5 min): 5 | number of knockdowns ([2]; 3.0 min): 10 | number of knockdowns ([2]; 3.5 min): 16 | number of knockdowns ([2]; 4.0 min): 25 | Mortality (%) ([2]; 24 hrs.): 96% | Mortality (%) ([2]; 48 hrs.): 100% | Knockdown Ratio (%) ([3]; 1 hr): 0% | Knockdown Ratio (%) ([3]; 2 hrs): 0% | Knockdown Ratio (%) ([3]; 4 hrs): 0% | Knockdown Ratio (%) ([3]; 24 hrs): 90.0% | Mortality at 48 hrs (%) ([3]; 48 hrs): 90.0% | Knockdown Ratio (%) ([4]; 1 hr): 0% | Knockdown Ratio (%) ([4]; 2 hrs): 0% | Knockdown Ratio (%) ([4]; 4 hrs): 0% | Knockdown Ratio (%) ([4]; 24 hrs): 65.0% | Mortality at 48 hrs (%) ([4]; 48 hrs): 75.0% | Vapor Pressure ([5]; 20° C.): 5.1 × 10^−4 mmHg | Vapor Pressure ([5]; 25° C.): 9.2 × 10^−4 mmHg | Vapor Pressure ([5]; 30° C.): 1.6 × 10^−3 mmHg | Vapor Pressure ([5]; 35° C.): 2.8 × 10^−3 mmHg | Vapor Pressure ([5]; 40° C.): 4.8 × 10^−3 mmHg

COP(=O)(OC)OC=C(Cl)Cl [DDVP]
Vapor Pressure [6]: 1×10^−2 mmHg | Vapor Pressure ([5]; 20° C.): 1.2 × 10^−2 mmHg | Vapor Pressure ([5]; 25° C.): 1.9 × 10^−2 mmHg | Vapor Pressure ([5]; 30° C.): 3.0 × 10^−2 mmHg | Vapor Pressure ([5]; 35° C.): 4.6 × 10^−2 mmHg | Vapor Pressure ([5]; 40° C.): 7.1 × 10^−2 mmHg
